{
  "source": "the NIST ThermoML archive (doi:10.1016/j.jct.2008.01.010)",
  "settings": "Crystal; for mass density: 298.15 K, 101.33 kPa, Pycnometric method; for vapor or sublimation pressure: Calculated from knudsen effusion weight loss",
  "note": "Where “and” joins values, the source holds several entries; their conditions need not be identical. Equal values may be shown once. ± gives the expanded uncertainty stated by the source.",
  "data": [
    {"smiles": "Oc1nncc2ccccc12", "note": "[1(2H)-phthalazinone]", "values": [
      {"measurement": "mass density", "result": "1290 ± 20", "unit": "kg/m3"},
      {"measurement": "vapor or sublimation pressure", "setting": "348.12 K", "result": "0.0001427 ± 7.2e-06 kPa and 0.0001428 ± 7.2e-06 kPa and 0.0001398 ± 7e-06 kPa"},
      {"measurement": "vapor or sublimation pressure", "setting": "350.14 K", "result": "0.0001731 ± 8.7e-06 kPa and 0.0001683 ± 8.4e-06 kPa and 0.0001668 ± 8.4e-06 kPa"},
      {"measurement": "vapor or sublimation pressure", "setting": "352.15 K", "result": "0.0002116 ± 1.1e-05 kPa and 0.0002079 ± 1e-05 kPa"},
      {"measurement": "vapor or sublimation pressure", "setting": "354.18 K", "result": "0.0002587 ± 1.3e-05 kPa and 0.0002577 ± 1.3e-05 kPa and 0.0002582 ± 1.3e-05 kPa"},
      {"measurement": "vapor or sublimation pressure", "setting": "356.2 K", "result": "0.0003206 ± 1.6e-05 kPa and 0.0003187 ± 1.6e-05 kPa and 0.0003134 ± 1.6e-05 kPa"},
      {"measurement": "vapor or sublimation pressure", "setting": "358.15 K", "result": "0.0003799 ± 1.9e-05 kPa and 0.0003853 ± 1.9e-05 kPa and 0.0003771 ± 1.9e-05 kPa"},
      {"measurement": "vapor or sublimation pressure", "setting": "360.2 K", "result": "0.0004783 ± 2.4e-05 kPa and 0.0004761 ± 2.4e-05 kPa and 0.0004538 ± 2.3e-05 kPa"},
      {"measurement": "vapor or sublimation pressure", "setting": "362.14 K", "result": "0.0005802 ± 2.9e-05 kPa and 0.0005665 ± 2.8e-05 kPa and 0.0005564 ± 2.8e-05 kPa"},
      {"measurement": "vapor or sublimation pressure", "setting": "364.18 K", "result": "0.0006992 ± 3.5e-05 kPa and 0.0006815 ± 3.4e-05 kPa and 0.000676 ± 3.4e-05 kPa"},
      {"measurement": "vapor or sublimation pressure", "setting": "366.14 K", "result": "0.0008356 ± 4.2e-05 kPa and 0.0008316 ± 4.2e-05 kPa and 0.000817 ± 4.1e-05 kPa"},
      {"measurement": "vapor or sublimation pressure", "setting": "368.13 K", "result": "0.0009681 ± 4.8e-05 kPa and 0.001004 ± 0.0001 kPa and 0.0009903 ± 4.9e-05 kPa"}
    ]},
    {"smiles": "O=c1[nH][nH]c(=O)c2ccccc12", "note": "[2,3-dihydro-1,4-phthalazinedione]", "values": [
      {"measurement": "mass density", "result": "1390 ± 20", "unit": "kg/m3"},
      {"measurement": "vapor or sublimation pressure", "setting": "428.18 K", "result": "0.0001501 ± 7.5e-06 kPa and 0.00015 ± 7.5e-06 kPa and 0.0001468 ± 7.4e-06 kPa"},
      {"measurement": "vapor or sublimation pressure", "setting": "430.16 K", "result": "0.0001786 ± 8.9e-06 kPa and 0.0001816 ± 9.1e-06 kPa and 0.0001711 ± 8.6e-06 kPa"},
      {"measurement": "vapor or sublimation pressure", "setting": "432.24 K", "result": "0.0002109 ± 1.1e-05 kPa and 0.000215 ± 1.1e-05 kPa and 0.0002114 ± 1.1e-05 kPa"},
      {"measurement": "vapor or sublimation pressure", "setting": "434.18 K", "result": "0.0002433 ± 1.2e-05 kPa and 0.0002441 ± 1.2e-05 kPa"},
      {"measurement": "vapor or sublimation pressure", "setting": "436.19 K", "result": "0.0002898 ± 1.5e-05 kPa and 0.000293 ± 1.5e-05 kPa and 0.0002878 ± 1.4e-05 kPa"},
      {"measurement": "vapor or sublimation pressure", "setting": "438.26 K", "result": "0.0003477 ± 1.7e-05 kPa and 0.0003523 ± 1.8e-05 kPa and 0.0003443 ± 1.7e-05 kPa"},
      {"measurement": "vapor or sublimation pressure", "setting": "440.19 K", "result": "0.0004064 ± 2e-05 kPa and 0.0003929 ± 2e-05 kPa"},
      {"measurement": "vapor or sublimation pressure", "setting": "442.17 K", "result": "0.000473 ± 2.4e-05 kPa and 0.000486 ± 2.4e-05 kPa"},
      {"measurement": "vapor or sublimation pressure", "setting": "444.26 K", "result": "0.0005785 ± 2.9e-05 kPa and 0.0005761 ± 2.9e-05 kPa"},
      {"measurement": "vapor or sublimation pressure", "setting": "446.19 K", "result": "0.0006629 ± 3.3e-05 kPa and 0.0006749 ± 3.4e-05 kPa and 0.0006616 ± 3.3e-05 kPa"},
      {"measurement": "vapor or sublimation pressure", "setting": "448.22 K", "result": "0.0007985 ± 4e-05 kPa and 0.0007997 ± 4e-05 kPa and 0.0007669 ± 3.8e-05 kPa"},
      {"measurement": "vapor or sublimation pressure", "setting": "450.28 K", "result": "0.0009283 ± 4.6e-05 kPa and 0.0009382 ± 4.7e-05 kPa"}
    ]}
  ]
}
